{
  "source": "patent US7026289B2",
  "about": "“Method and compositions for treating hyperlipidemia and other conditions” (Societe de Conseils de Recherches et d'Applications …, priority 1997, dated 2006)",
  "key": {"[1]": {"tested_on": "fatty (fa/fa) Zucker rats", "assay": "Reduction of glycerol and triglycerides, chronic treatment in obese rats", "format": "in vivo, rat", "settings": "for plasma glycerol / plasma triglycerides: 3 mg/kg s.c. twice a day, 6 days, vs saline", "excerpt": "The obese (fa/fa) Zucker and its derivative in the Zucker diabetic fatty (ZDF/Drt-fa) are excellent models of diabetes-induced dyspilidemia (Shafrir, E., Diabetes/Metabolism Rev. 8:179–208 (1992); Peterson, R. G., et al., ILAR News 32:16–19 (1990)). The animals develop progressive hypertriglyceridemia and hypercholesterolemia.\nEleven male fatty Zucker rats weighing about 450 grams were randomly divided into 2 groups and their initial body wights recorded. The animals were housed in pairs in a normal 12 hour light/dark cycle at 20–21 C and fed a standard laboratory rat diet (Beekay rat and mouse diet, Bantin & Kingman, Hull, Humberside, U.K.) overnight ad libitum.\nFor the group assigned to receive drug treatment, the rats received BIM-23268C at 3 mg/kg, by subcutaneous injection twice a day at 10:00 a.m. and 5:00 p.m. The other group was treated with a subcutaneous injection of 0.1 ml/100 g of saline twice a day at 10:00 a.m. and 5:00 p.m. The animals were subjected to the BIM-23268 or saline treatment for a total of six days.\nOn the last day of treatment (day 6), food was removed at 5:00 p.m. and the rats fasted overnight. At 9:00 a.m. the next day, the animals were subjected to a glucose challenge, given as a 0.8 gram/kg of glucose orally. Periodic 400 ul of blood samples were taken from the tail vein (Peterson, R. G., ILAR News 32:16–19 (1990)) at 60 min. and 30 min. before, and at 30, 60, 90, and 120 min. after the administration of the glucose challenge (08. gram/kg orally). Aprotinin (Traysylol, Bayer UK, Hayward's Heath, W. Sussex, U.K.) and heparin (Sigma Chemical Co., Poole, Dorset, U.K.) were added to the blood samples to a final concentration of 400 KIU/ml and 100 units/ml, respectively. Plasma fractions were prepared from these samples by centrifugation at 400×G in a microfuge, for the estimation of triglycerides and glycerol. Samples were then stored at −80° C. until assayed.\nPlasma glycerol and triglycerides were determined using the Sigma Enzymatic (Tinder) calorimetric assay kit (Cat #337-B, Sigma Chemical Co., Poole, Dorset, U.K.) and measuring absorbance at 540 nm in a spectrophotometer."}, "hSSTR-1": {"molecular_target": "T1, hSSTR-1 (Homo sapiens, UniProt P30872)", "T1 construct": "expressed in transfected cells", "T1 sequence (P30872 whole entry)": "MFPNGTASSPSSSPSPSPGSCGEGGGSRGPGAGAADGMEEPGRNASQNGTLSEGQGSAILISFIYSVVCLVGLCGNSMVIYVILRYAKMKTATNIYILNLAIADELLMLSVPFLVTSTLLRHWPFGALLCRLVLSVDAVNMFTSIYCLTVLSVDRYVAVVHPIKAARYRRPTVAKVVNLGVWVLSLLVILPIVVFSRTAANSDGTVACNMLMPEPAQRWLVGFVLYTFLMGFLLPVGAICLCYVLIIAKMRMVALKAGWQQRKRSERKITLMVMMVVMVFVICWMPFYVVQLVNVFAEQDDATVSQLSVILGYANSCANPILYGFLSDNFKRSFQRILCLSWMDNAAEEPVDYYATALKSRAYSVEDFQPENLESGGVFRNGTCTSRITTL", "assay": "Somatostatin receptor binding assay, [125I-Tyr11] somatostatin-14, CHO-K1 membranes", "settings": "displacement of 0.05 nM [125I-Tyr11] somatostatin-14, transfected CHO-K1 membranes", "procedure": "Restriction endonucleases are available from New England Biolabs (Beverly, Mass.). […] Other mammalian expression vectors include pcDNA1/Amp (Invitrogen, Sandlesy, Calif.). The expression plasmids were introduced into the suitable bacterial host, E. Coli HB101 (Stratagene, La Jolla, Calif.) and plasmid DNAs, for transfection, were prepared on Cesium Chloride gradients.\nCHO-K1 (ovary, Chinese hamster) cells were obtained from ATCC (ATCC No. CCL 61). The cells were grown and maintained in Ham's F12 media (Gibco BRL, Grand Island, N.Y.) supplemented with 10% fetal bovine serum under standard tissue culture conditions. […] DNA mediated transfection was carried out using the calcium phosphate co-precipitation method (Ausubel, F. M., et al., Current Protocols in Molecular Biology, John Wiley & Sons, 1987). The plasmid pRSV-neo (ATCC; ATCC No. 37198) was included as a selectable marker at 1/10 the concentration of the expression plasmid. CHO-K1 clonal cell lines that have stably inherited the transfected DNA were selected for growth in Ham's F12 media containing 10% fetal bovine serum and 0.5 mg/ml of G418 (Sigma). The cells were ring-cloned and expanded in the same media for analysis.\nTransfected cell lines expressing the human SSTR receptors were clonally expanded in culture and used in the following SSTR binding protocol.\nThe resulting supernatant was decanted and discarded. […]"}, "[2]": {"settings": "samples 30 and 60 min before oral glucose challenge"}, "[3]": {"settings": "through the 2-hour test period after oral glucose challenge"}},
  "note": "pKi: −log10 of the molar value. Positions of bridges follow the written chain, without caps; N, C: chain ends. Non-standard residues stand in square brackets, D forms with d. Residues, ends and D or L forms follow the SMILES beside them.",
  "data": [
    {"compound": "C[C@@H](O)[C@@H]1NC(=O)[C@H](CCCCN)NC(=O)[C@@H](Cc2c[nH]c3ccccc23)NC(=O)[C@H](Cc2ccccc2)NC(=O)[C@H](Cc2ccccc2)NC(=O)[C@@H](N)CSSC[C@@H](C(N)=O)NC(=O)[C@H](Cc2ccccc2)NC1=O", "note": "[BIM-23268, H-Cys-Phe-Phe-D-Trp-Lys-Thr-Phe-Cys-NH2] (H-CFF[dW]KTFC-NH2; disulfide 1-8)", "values": [
      {"measurement": "plasma glycerol", "setting": "[1]; [2]", "value": "significantly lowered"},
      {"measurement": "plasma triglycerides", "setting": "[1]; [2]", "value": "significantly lowered"},
      {"measurement": "plasma glycerol", "setting": "[1]; [3]", "value": "significantly lower"},
      {"measurement": "plasma triglycerides", "setting": "[1]; [3]", "value": "significantly lower"},
      {"measurement": "hypertriglyceridemia", "setting": "[1]; 6-day treatment period at the prescribed dose (3 mg/kg s.c. twice a day)", "value": "effective in reducing hypertriglyceridemia"}
    ]},
    {"compound": "C[C@@H](O)[C@@H]1NC(=O)[C@H](CCCCN)NC(=O)[C@@H](Cc2c[nH]c3ccccc23)NC(=O)[C@H](Cc2ccc(O)c(I)c2)NC(=O)[C@H](Cc2ccccc2)NC(=O)[C@@H](N)CSSC[C@@H](C(N)=O)NC(=O)[C@H](Cc2ccccc2)NC1=O", "note": "[BIM-23313, H-Cys-Phe-Tyr(I)-D-Trp-Lys-Thr-Phe-Cys-NH2]", "values": [
      {"measurement": "pKi", "setting": "hSSTR-1", "value": 6.82}
    ]}
  ]
}
